The text below walks through data of patent US20100022542A1, “COMPOUNDS EXHIBITING THROMBOPOIETIN RECEPTOR AGONISM” (Shionogi & Co., Ltd., priority 2000, published 2010).

The structures appear in SMILES notation.

The term EC50 denotes the concentration at which the effect is half-maximal. Lower therefore signals greater potency.

The test deals with T1, human TPO receptor (hTPOR) (Homo sapiens, UniProt P40238).
T1 construct: expressed in transfected cells; host or cells: BaF-B03 (murine IL-3 dependent cell line)
T1 sequence (P40238 26-635): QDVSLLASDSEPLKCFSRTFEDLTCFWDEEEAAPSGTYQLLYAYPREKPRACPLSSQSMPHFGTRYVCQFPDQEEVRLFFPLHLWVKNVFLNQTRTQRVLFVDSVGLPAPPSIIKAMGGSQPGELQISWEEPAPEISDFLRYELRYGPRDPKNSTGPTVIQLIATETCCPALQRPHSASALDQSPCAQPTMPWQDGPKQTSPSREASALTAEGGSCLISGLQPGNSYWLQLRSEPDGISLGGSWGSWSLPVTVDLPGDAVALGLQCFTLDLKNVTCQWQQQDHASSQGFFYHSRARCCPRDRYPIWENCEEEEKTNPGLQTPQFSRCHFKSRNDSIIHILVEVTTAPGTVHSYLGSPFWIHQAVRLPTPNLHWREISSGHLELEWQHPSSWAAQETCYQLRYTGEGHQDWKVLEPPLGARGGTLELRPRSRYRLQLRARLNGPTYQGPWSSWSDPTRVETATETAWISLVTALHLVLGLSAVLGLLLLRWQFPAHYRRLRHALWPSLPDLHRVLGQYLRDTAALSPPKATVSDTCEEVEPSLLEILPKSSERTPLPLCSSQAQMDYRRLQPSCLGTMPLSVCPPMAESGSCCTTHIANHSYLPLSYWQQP
Put plainly: Proliferation of TPO dependent BaF/hTPOR cells, WST-1, thrombopoietic activity ED50 (Test Example 3). In kind it is cell-based. Particulars: 20 h incubation then WST-1 4 h, absorbance at 450 nm. The source says: FIG. 2: The chart represents proliferation of the human TPO dependent cells bearing human TPO receptors by the present invention compound, wherein the x-axis is concentration of the present invention compound, and the y-axis is the absorbance as an indicator of cell proliferation. Open circles indicate a response of human TPO, and closed circles indicate a response of the compound (B-1).
The TPO dependent BaF/hTPOR cell line which was established by introducing human TPO receptor (hTPOR) into BaF-B03 cells according to Collins et al (J. Cell. Physiol., 137:293-298 (1988)) was used to test the thrombopoietic activity of the present compound. The DNA sequences and encoded peptide sequences for human hTPOR have been described by Vigon et al (Proc. Natl. Acad. Sci. USA, 89:5640-5644 (1992)). TPO dose not have any ability to support proliferation of interleukin-3 dependent parental cell line BaF-B03. BAF/hTPOR cells were maintained in RPMI medium and WEHI-3B conditioned medium as a source of murine interleukin-3 (IL-3). These cells were washed and resuspended in RPMI medium without a source of murine IL-3 and seeded into each well of 96-well microtiter plates at a density of 5×10^4 cells per well in the absence or presence of various concentration of hTPO or the present compound. After incubation at 37° C. for 20 hours in the 5% CO2 incubator, 10% WST-1 reagent (Takara Biomedicals, Japan) was added to each wells and the cells were further incubated for 4 hours. Effect of the present compound on the growth of BAF/mTPOR cell line which was established by introducing murine TPO receptor (mTPOR) into BAF-B03 cells is shown in FIG. 3. Table 8 exemplifies the ED50 for tested compounds of the present invention, wherein the ED50 is the half concentration of the concentration showing the maximum thrombopoietic activity.
On the technique in general: Formazan colour is commonly taken as a measure of viable cells.

`CCOC(=O)/C=C/c1ccc(C(=O)Nc2nc(-c3ccc(Cl)c(Cl)c3)cs2)cc1` [Compound A-3] returned an EC50 of 218 nM. That is a sub-micromolar value.

On to `O=C(O)/C=C/c1ccc(C(=O)Nc2nc(-c3ccc(Cl)c(Cl)c3)cs2)cc1` [Compound A-4], for which the EC50 came out at 124 nM.

For the compound `CCOC(=O)C(=Cc1ccc(C(=O)Nc2nc(-c3ccc(Cl)c(Cl)c3)cs2)cc1)CC` [Compound A-5], the response was half-maximal at 984 nM (EC50).

Take `CCC(=Cc1ccc(C(=O)Nc2nc(-c3ccc(Cl)c(Cl)c3)cs2)cc1)C(=O)O` [Compound A-6]: a half-maximal effect (EC50) was put at 248 nM.

Take `CC(C(=O)O)=C(C)c1ccc(C(=O)Nc2nc(-c3ccc(Cl)c(Cl)c3)cs2)cc1` [Compound A-8]: the midpoint of the response, the EC50, lay at 529 nM.

In turn, `CCOC(=O)C(C)=Cc1ccc(C(=O)Nc2nc(-c3ccc(F)c(F)c3)cs2)cc1` [Compound A-9] had an EC50 of 504 nM.

`CC(=Cc1ccc(C(=O)Nc2nc(-c3ccc(F)c(F)c3)cs2)cc1)C(=O)O` [Compound A-10] gave an EC50 of 365 nM.

Take `CCOC(=O)C(Cl)=Cc1ccc(C(=O)Nc2nc(-c3ccc(Cl)c(Cl)c3)cs2)cc1` [Compound A-11]: a half-maximal effect (EC50) was put at 33.5 nM.

`O=C(O)/C(Cl)=C/c1ccc(C(=O)Nc2nc(-c3ccc(Cl)c(Cl)c3)cs2)cc1` [Compound A-14] displayed a 50% effective concentration (EC50) of 17 nM.

As for `C/C(=C\c1ccc(C(=O)Nc2nc(-c3cccc(F)c3)cs2)cc1)C(=O)O` [Compound A-18], the EC50 amounted to 132 nM.

For `CCOC(=O)/C(C)=C/c1ccc(C(=O)Nc2nc(-c3cccc(OC(F)(F)F)c3)cs2)cc1` [Compound A-19], a half-maximal effect (EC50) was put at 170 nM. This EC50 and that of the compound before are within 1.5-fold of each other.

`C/C(=C\c1ccc(C(=O)Nc2nc(-c3cccc(OC(F)(F)F)c3)cs2)cc1)C(=O)O` [Compound A-20] displayed an EC50 of 610 nM. Compared with the last compound, the EC50 is about 3.6-fold higher.

Take `CCOC(=O)/C(C)=C/c1ccc(C(=O)Nc2nc(-c3ccc(F)cc3)cs2)cc1` [Compound A-23]: the EC50 is 337 nM. Compared with the last compound, the EC50 is about 1.8-fold lower.

For `C/C(=C\c1ccc(C(=O)Nc2nc(-c3ccc(F)cc3)cs2)cc1)C(=O)O` [Compound A-24], the response was half-maximal at 288 nM (EC50). The EC50 values of the last two compounds are within 1.5-fold of each other.

`CCOC(=O)/C(C)=C/c1ccc(C(=O)Nc2nc(-c3ccc(C(F)(F)F)cc3)cs2)cc1` [Compound A-25] gave an EC50 of 150 nM.

`C/C(=C\c1ccc(C(=O)Nc2nc(-c3ccc(C(F)(F)F)cc3)cs2)cc1)C(=O)O` [Compound A-26]: the EC50 amounted to 98 nM.

For the compound `CCOC(=O)/C(C)=C/c1ccc(C(=O)Nc2nc(-c3cccc(C(F)(F)F)c3)cs2)cc1` [Compound A-27], a half-maximal response (EC50) required 193 nM. This EC50 is about 2-fold higher than that of the compound before.

The compound `C/C(=C\c1ccc(C(=O)Nc2nc(-c3cccc(C(F)(F)F)c3)cs2)cc1)C(=O)O` [Compound A-28] gave an EC50 of 99 nM. This EC50 lies about 1.9-fold lower than the previous one.

`CCOC(=O)/C(Cl)=C/c1ccc(C(=O)Nc2nc(-c3cccc(F)c3)cs2)cc1` [Compound A-29] gave an EC50 of 289 nM. Against the preceding compound, the EC50 is about 2.9-fold higher.

`O=C(O)/C(Cl)=C/c1ccc(C(=O)Nc2nc(-c3cccc(F)c3)cs2)cc1` [Compound A-30] displayed an EC50 of 274 nM. This EC50 and that of the compound before are within 1.5-fold of each other.

`CCOC(=O)/C(Cl)=C/c1ccc(C(=O)Nc2nc(-c3cccc(OC(F)(F)F)c3)cs2)cc1` [Compound A-31] had an EC50 of 56 nM. This EC50 lies about 4.9-fold lower than the previous one.

For `O=C(O)/C(Cl)=C/c1ccc(C(=O)Nc2nc(-c3cccc(OC(F)(F)F)c3)cs2)cc1` [Compound A-32], the EC50 turned out to be 40 nM.

Compound `CCOC(=O)/C(Cl)=C/c1ccc(C(=O)Nc2nc(-c3ccc(F)c(F)c3)cs2)cc1` [Compound A-35] showed an EC50 of 96 nM.

The compound `O=C(O)/C(Cl)=C/c1ccc(C(=O)Nc2nc(-c3ccc(F)c(F)c3)cs2)cc1` [Compound A-36] showed an EC50 of 95 nM.

With `CCOC(=O)/C(Cl)=C/c1ccc(C(=O)Nc2nc(-c3ccc(F)cc3)cs2)cc1` [Compound A-37], a half-maximal effect (EC50) was put at 96 nM.

As for `O=C(O)/C(Cl)=C/c1ccc(C(=O)Nc2nc(-c3ccc(F)cc3)cs2)cc1` [Compound A-38], the EC50 stood at 245 nM.

Take `CCOC(=O)/C(Cl)=C/c1ccc(C(=O)Nc2nc(-c3ccc(C(F)(F)F)cc3)cs2)cc1` [Compound A-39]: a half-maximal response (EC50) required 44 nM.

`O=C(O)/C(Cl)=C/c1ccc(C(=O)Nc2nc(-c3ccc(C(F)(F)F)cc3)cs2)cc1` [Compound A-40]: the EC50 turned out to be 47 nM. This EC50 and that of the compound before are within 1.5-fold of each other.

`CCOC(=O)/C(Cl)=C/c1ccc(C(=O)Nc2nc(-c3cccc(C(F)(F)F)c3)cs2)cc1` [Compound A-41] registered an EC50 of 39 nM.

On to `O=C(O)/C(Cl)=C/c1ccc(C(=O)Nc2nc(-c3cccc(C(F)(F)F)c3)cs2)cc1` [Compound A-42], for which it took 50 nM to reach a half-maximal effect (EC50).

Compound `O=C(O)/C(F)=C/c1ccc(C(=O)Nc2nc(-c3ccc(Cl)c(Cl)c3)cs2)cc1` [Compound A-43] came in with an EC50 of 71 nM.

`O=C(O)/C(F)=C/c1ccc(C(=O)Nc2nc(-c3cccc(C(F)(F)F)c3)cs2)cc1` [Compound A-44] came in with an EC50 of 227 nM.

Compound `O=C(O)C(F)=Cc1ccc(C(=O)Nc2nc(-c3cccc(OC(F)(F)F)c3)cs2)cc1` [Compound A-45] displayed an EC50 of 203 nM.

As to `O=C(O)C(F)=Cc1ccc(C(=O)Nc2nc(-c3ccc(C(F)(F)F)cc3)cs2)cc1` [Compound A-46], the EC50 was determined as 263 nM.

In the case of `O=C(O)/C(Cl)=C/c1ccc(C(=O)Nc2nc(-c3ccc(-c4ccccc4)cc3)cs2)cc1` [Compound A-47], the EC50 was determined as 512 nM.

Turning to `CC(C)(C)c1ccc(-c2csc(NC(=O)c3ccc(/C=C(\Cl)C(=O)O)cc3)n2)cc1` [Compound A-48], the response was half-maximal at 473 nM (EC50).

Take `CCCCCc1ccc(-c2csc(NC(=O)c3ccc(/C=C(\Cl)C(=O)O)cc3)n2)cc1` [Compound A-49]: the concentration for a half-maximal effect (EC50) amounted to 116 nM.

On to `O=C(O)/C(Cl)=C/c1ccc(C(=O)Nc2nc(-c3ccccc3F)cs2)cc1` [Compound A-50], for which the midpoint of the response, the EC50, lay at 113 nM. The EC50 values of the last two compounds are within 1.5-fold of each other.

Take `O=C(O)/C(Cl)=C/c1ccc(C(=O)Nc2nc(-c3c(F)cccc3F)cs2)cc1` [Compound A-51]: it took 568 nM to reach a half-maximal effect (EC50).

Regarding `COc1cccc(-c2csc(NC(=O)c3ccc(/C=C(\Cl)C(=O)O)cc3)n2)c1` [Compound A-52], it took 425 nM to reach a half-maximal effect (EC50).

Compound `O=C(O)/C(Cl)=C/c1ccc(C(=O)Nc2nc(-c3cccc(-c4ccccc4)c3)cs2)cc1` [Compound A-54] had an EC50 of 65 nM.

As to `CCCCc1cccc(-c2csc(NC(=O)c3ccc(/C=C(\Cl)C(=O)O)cc3)n2)c1` [Compound A-55], a half-maximal effect (EC50) was put at 37 nM.

On to `O=C(O)/C(Cl)=C/c1ccc(C(=O)Nc2nc(-c3ccc(F)cc3F)cs2)cc1` [Compound A-56], for which a half-maximal effect (EC50) was put at 66 nM. This EC50 is about 1.8-fold higher than that of the compound before.

Compound `O=C(O)/C(Cl)=C/c1ccc(C(=O)Nc2nc(-c3cccc(C(F)(F)F)c3F)cs2)cc1` [Compound A-57] returned an EC50 of 19 nM.

In turn, `O=C(O)/C(Cl)=C/c1ccc(C(=O)Nc2nc(-c3cc(F)ccc3F)cs2)cc1` [Compound A-58] gave an EC50 of 497 nM.

`CCCCOc1ccc(-c2csc(NC(=O)c3ccc(/C=C(\Cl)C(=O)O)cc3)n2)cc1` [Compound A-59]: the EC50 was determined as 164 nM. This EC50 lies about 3-fold lower than the previous one.

With `O=C(O)/C(Cl)=C/c1ccc(C(=O)Nc2nc(-c3ccc(C(F)(F)F)cc3F)cs2)cc1` [Compound A-60], the EC50 came to 23 nM.

As to `COc1ccc(-c2csc(NC(=O)c3ccc(/C=C(\Cl)C(=O)O)cc3)n2)c(F)c1` [Compound A-61], the EC50 came out at 207 nM.

With `O=C(O)/C(Cl)=C/c1ccc(C(=O)Nc2nc(-c3cc(F)c(F)cc3F)cs2)cc1` [Compound A-62], the EC50 is 101 nM. Compared with the last compound, the EC50 is about 2-fold lower.

The compound `O=C(O)/C(Cl)=C/c1ccc(C(=O)Nc2nc(-c3ccc(F)c(Br)c3)cs2)cc1` [Compound A-63] showed an EC50 of 25 nM.

Regarding `CC(C)Cc1ccc(-c2csc(NC(=O)c3ccc(/C=C(\Cl)C(=O)O)cc3)n2)cc1` [Compound A-64], the midpoint of the response, the EC50, lay at 204 nM. Compared with the last compound, the EC50 is about 8.2-fold higher.

`O=C(O)/C(Cl)=C/c1ccc(C(=O)Nc2nc(-c3cc(C(F)(F)F)cc(C(F)(F)F)c3)cs2)cc1` [Compound A-65]: the EC50 amounted to 28 nM.

Consider `Cn1cc(-c2csc(NC(=O)c3ccc(/C=C(\Cl)C(=O)O)cc3)n2)c2ccccc21` [Compound A-66], for which the EC50 came out at 211 nM. This EC50 is about 7.5-fold higher than that of the compound before.

Consider `O=C(O)/C(F)=C/c1ccc(C(=O)Nc2nc(-c3ccc(F)cc3)cs2)cc1` [Compound A-68], for which a half-maximal effect (EC50) was put at 222 nM. This EC50 and that of the compound before are within 1.5-fold of each other.
